Experimental data as given in patent publication US20090286713A9, “Collagen Receptor I-Domain Binding Modulators” (Biotie Therapies Corporation, priority 2005, published 2009).

Legend:
α2 I-domain = biological target: T1, α2 I-domain (Homo sapiens, UniProt P17301); test: Solid-phase binding assay, α2 I-domain binding to type I collagen
T1 construct: corresponded to amino acids 124-339 of the whole α2 integrin; made in house; host or cells: E. coli BL21 (pGEX-2T)
T1 sequence (P17301 153-368): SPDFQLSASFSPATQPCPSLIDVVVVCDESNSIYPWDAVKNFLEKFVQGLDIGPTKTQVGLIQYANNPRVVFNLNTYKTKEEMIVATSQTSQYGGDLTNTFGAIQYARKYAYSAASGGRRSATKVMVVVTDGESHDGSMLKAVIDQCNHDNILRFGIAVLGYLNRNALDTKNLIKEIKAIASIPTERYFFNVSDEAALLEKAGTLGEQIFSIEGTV
Procedure: (§1) Solid-phase binding assay for α1-domains—The coating of a 96-well high binding microtiter plate (Nune) was done by exposure to 0.1 ml of PBS containing 5 μg/cm2 (15 μg/ml) collagens or 20 μg/ml triple-helical peptides overnight at +4° C. Blank wells were coated with 1:1 solution of 0.1 ml Delfia® Diluent II (Wallac) and PBS. Residual protein absorption sites on all wells were blocked with 1:1 solution of 0.1 ml Delfia® Diluent II (Wallac) and PBS. Recombinant proteins (αI-GST) were added to the coated wells at a desired concentration in Delfia® Assay Buffer and incubated for 1 h at room temperature. Europium-labelled anti-GST antibody (Wallac) was then added (typically 1:1000), and the mixture was incubated for 1 h at room temperature. All incubations mentioned above were done in the presence of 2 mM MgCl2. Delfia® enhancement solution (Wallac) was added to each well and the Europium signal was measured by time-resolved fluorometry (Victor2 multilabel counter, Wallac). At least three parallel wells were analyzed. In some cases some what modified solid-phase assay was used and it was performed according Tulla et al, 2001. It uses anti-GST and Europium-labelled protein G instead of Europium-labelled anti-GST antibody.
The tetracyclic Streptomyces compounds synthesised in Example 1, where screened for inhibition of collagen binding to α1 and α2 I-domains, using the α I-domain assay described in Example 4. […] L3015 could inhibit the binding of both α1I and α2 I-domains to type I and type IV collagen (FIG. 6B).
Based on the utilization of 3D model other compounds from the polyketide family were tested. The compounds were tested in the europium-labelled anti-GST assay described in Example 4. Tetracyclic polyketides L3007, L3008, and L3009 could inhibit α2 I-domain binding to type I collagen (FIG. 8A).

α10 I-domain = biological target: T2, α10 I-domain (Homo sapiens, UniProt O75578); test: Solid-phase binding assay, α10 I-domain binding to type I collagen; conditions: at 0.05 mM concentration; FIG. 9
T2 construct: corresponding to amino acids 141-337 of the whole α10 integrin; made in house; host or cells: E. coli BL21 (pGEX-2T)
T2 sequence (O75578 163-359): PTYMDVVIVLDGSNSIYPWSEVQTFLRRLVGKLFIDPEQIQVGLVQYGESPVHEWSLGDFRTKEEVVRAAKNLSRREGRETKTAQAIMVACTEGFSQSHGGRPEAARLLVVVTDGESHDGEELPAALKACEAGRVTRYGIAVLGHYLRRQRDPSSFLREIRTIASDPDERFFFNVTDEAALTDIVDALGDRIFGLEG
Procedure: as §1
(§2) The inhibitory effect of L3009 was tested with all collagen binding integrin α I-domains, α1I, α2I, α10I and α11I as described in Example 4. […]

α11 I-domain = biological target: T3, α11 I-domain (Homo sapiens, UniProt Q9UKX5); test: Solid-phase binding assay, α11 I-domain binding to type I collagen; conditions: at 0.05 mM concentration; FIG. 9
T3 construct: two extra residues before α11I, residues 159-354; made in house; host or cells: E. coli BL21
T3 sequence (Q9UKX5 159-354): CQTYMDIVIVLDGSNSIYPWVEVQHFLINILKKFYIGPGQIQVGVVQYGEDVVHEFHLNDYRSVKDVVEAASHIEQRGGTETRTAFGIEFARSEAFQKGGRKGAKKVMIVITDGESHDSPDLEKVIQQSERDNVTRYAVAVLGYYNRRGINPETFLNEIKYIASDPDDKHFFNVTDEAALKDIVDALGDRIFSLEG
Procedure: as §1, §2

inhibition of α2 I-domain binding to type I collagen (in words) (α2 I-domain; FIG. 6B, 7A, 8A): could inhibit
inhibition of collagen I binding of α2I (α2 I-domain; at 0.05 mM concentration, FIG. 9): could inhibit
inhibition of collagen I binding of α10I (α10 I-domain): could inhibit
inhibition of collagen I binding of α11I (α11 I-domain): could inhibit
SMILES: COC(=O)c1c(C(C)C)cc(O)c2c(O)c3c(c(O)c12)C(=O)c1cccc(O)c1C3=O [Compound L3009, methyl 4,5,7,12-tetrahydroxy-2-methylethyl)-6,11-dioxonaphthacenecarboxylate]
